From US8901147B2, “Bi-heteroaryl compounds as Vps34 inhibitors” (Novartis AG, priority 2010, dated 2014)

molecular target: recombinant human Vps34 (Homo sapiens, UniProt Q8NEB9); assay: Vps34 KinaseGlo assay; assay type: biochemical; details: KinaseGlo luminescence ATP detection; PI/OG substrate; 1 μM ATP; room temperature; 8 concentrations, n=2
Procedure: It was then resuspended in 3% OctylGlucoside by vortexing and stored at 4° C. 5 μL of a mix of PI/OG with recombinant human Vps34 were added. Kinase reactions were started by addition of 5 μl of ATP-mix containing in a final volume 10 μL 10 mM TRIS-HCl pH 7.5, 3 mM MgCl2, 50 mM NaCl, 0.05% CHAPS, 1 mM DTT and 1 μM ATP, and occurred at room temperature. Reactions were stopped with 10 μl of KinaseGlo and plates were read 10 minutes later in a Synergy2 reader using an integration time of 0.1 seconds per well.

recombinant human Vps34, sequence (Q8NEB9 whole entry): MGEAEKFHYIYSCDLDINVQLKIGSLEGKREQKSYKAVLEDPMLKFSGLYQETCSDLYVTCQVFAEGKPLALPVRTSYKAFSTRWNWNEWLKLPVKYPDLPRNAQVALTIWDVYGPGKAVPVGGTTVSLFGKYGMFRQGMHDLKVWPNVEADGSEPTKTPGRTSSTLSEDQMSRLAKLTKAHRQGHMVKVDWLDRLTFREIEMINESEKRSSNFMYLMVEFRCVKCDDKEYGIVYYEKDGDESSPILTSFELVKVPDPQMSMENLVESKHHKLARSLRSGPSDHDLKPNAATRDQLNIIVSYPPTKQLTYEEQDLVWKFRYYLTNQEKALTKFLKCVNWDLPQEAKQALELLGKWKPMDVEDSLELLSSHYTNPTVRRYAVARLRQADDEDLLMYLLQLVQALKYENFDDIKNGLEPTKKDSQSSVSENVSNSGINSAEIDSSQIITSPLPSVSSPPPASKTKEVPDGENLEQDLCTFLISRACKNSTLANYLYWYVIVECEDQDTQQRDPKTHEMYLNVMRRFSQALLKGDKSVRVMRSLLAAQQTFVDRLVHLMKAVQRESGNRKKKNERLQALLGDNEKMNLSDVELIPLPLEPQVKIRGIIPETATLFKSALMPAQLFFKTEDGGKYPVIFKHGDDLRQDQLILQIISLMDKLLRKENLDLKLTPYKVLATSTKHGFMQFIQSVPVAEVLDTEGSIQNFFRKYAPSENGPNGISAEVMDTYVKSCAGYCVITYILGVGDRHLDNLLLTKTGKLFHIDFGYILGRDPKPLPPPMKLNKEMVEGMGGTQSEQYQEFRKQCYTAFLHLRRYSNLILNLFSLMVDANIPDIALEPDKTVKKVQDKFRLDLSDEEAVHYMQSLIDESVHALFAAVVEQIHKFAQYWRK

Point of comparison: `CC(O)CNc1ncc(-c2ccnc(Nc3ccncc3)n2)c(CC2CC2)n1` (stereo not shown) [Example 10j, 1-(4′-(cyclopropylmethyl)-2-(pyridin-4-ylamino)-4,5′-bipyrimidin-2′-ylamino)propan-2-ol], IC50 29 nM. Against it:
- O[C@H]1CC[C@H](Nc2nccc(-c3cncnc3CC3CC3)n2)CC1 [Example 6a, Trans-4-{[4′-(cyclopropylmethyl)-4,5′-bipyrimidin-2-yl]amino}cyclohexanol] — 34-fold higher, 1000 nM
- Nc1ncc(-c2ccnc(N[C@H]3CC[C@H](O)CC3)n2)c(CC2CC2)n1 [Example 6b, (1r, 4r)-4-(2′-amino-4′-(cyclopropylmethyl)-4,5′-bipyrimidin-2-ylamino)cyclohexanol] — 9.1-fold higher, 264 nM
- Cc1ncc(-c2ccnc(N[C@H]3CC[C@H](O)CC3)n2)c(CC2CC2)n1 [Example 6c, (1r,4r)-4-(4′-(cyclopropylmethyl)-2′-methyl-4,5′-bipyrimidin-2-ylamino)cyclohexanol] — 27-fold higher, 775 nM
- CCc1ncc(-c2ccnc(N[C@H]3CC[C@H](O)CC3)n2)c(CC2CC2)n1 [Example 6d, (1r,4r)-4-(4′-(cyclopropylmethyl)-2′-ethyl-4,5′-bipyrimidin-2-ylamino)cyclohexanol] — 25-fold higher, 728 nM
- CNc1ncc(-c2ccnc(N[C@H]3CC[C@H](O)CC3)n2)c(CC2CC2)n1 [Example 6e, (1r, 4r)-4-(4′-(cyclopropylmethyl)-2′-(methylamino)-4,5′-bipyrimidin-2-ylamino)cyclohexanol] — 3.8-fold higher, 111 nM
- COc1ncc(-c2ccnc(NC3CCC(O)CC3)n2)c(CC2CC2)n1 (stereo not shown) [Example 6f, 4-(4′-(cyclopropylmethyl)-2′-methoxy-4,5′-bipyrimidin-2-ylamino)cyclohexanol] — 140-fold higher, 4000 nM
- CCNc1ncc(-c2ccnc(Nc3ccncc3)n2)c(CC2CC2)n1 [Example 10b, 4′-(cyclopropylmethyl)-N^2′-ethyl-N^2-(pyridin-4-yl)-4,5′-bipyrimidine-2,2′-diamine] — within 1.5-fold, 20 nM
- c1ccc(CNc2ncc(-c3ccnc(Nc4ccncc4)n3)c(CC3CC3)n2)cc1 [Example 10c, N^2′-benzyl-4′-(cyclopropylmethyl)-N^2-(pyridin-4-yl)-4,5′-bipyrimidine-2,2′-diamine] — 2.6-fold higher, 75.5 nM
- CC(C)CNc1ncc(-c2ccnc(Nc3ccncc3)n2)c(CC2CC2)n1 [Example 10d, 4′-(cyclopropylmethyl)-N^2′-isobutyl-N^2-(pyridin-4-yl)-4,5′-bipyrimidine-2,2′-diamine] — 2.5-fold higher, 72 nM
- c1cc(Nc2nccc(-c3cnc(NC4CCCC4)nc3CC3CC3)n2)ccn1 [Example 10e, N2′-cyclopentyl-4′-(cyclopropylmethyl)-N2-(pyridin-4-yl)-4,5′-bipyrimidine-2,2′-diamine] — 2.7-fold higher, 78.5 nM
- c1cc(Nc2nccc(-c3cnc(NC4CCC4)nc3CC3CC3)n2)ccn1 [Example 10f, N^2′-cyclobutyl-4′-(cyclopropylmethyl)-N^2-(pyridin-4-yl)-4,5′-bipyrimidine-2,2′-diamine] — 1.6-fold higher, 45.5 nM
- c1cc(Nc2nccc(-c3cnc(NC4CCOCC4)nc3CC3CC3)n2)ccn1 [Example 10g, 4′-(cyclopropylmethyl)-N^2-(pyridin-4-yl)-N^2′-(tetrahydro-2H-pyran-4-yl)-4,5′-bipyrimidine-2,2′-diamine] — 8.1-fold higher, 236 nM
- C[C@@H](Nc1ncc(-c2ccnc(Nc3ccncc3)n2)c(CC2CC2)n1)c1ccccc1 [Example 10h, (R)-4′-(cyclopropylmethyl)-N^2′-(1-phenylethyl)-N^2-(pyridin-4-yl)-4,5′-bipyrimidine-2,2′-diamine] — 8.9-fold higher, 258 nM
- CC(C)(C)Nc1ncc(-c2ccnc(Nc3ccncc3)n2)c(CC2CC2)n1 [Example 10i, N^2′-tert-butyl-4′-(cyclopropylmethyl)-N^2-(pyridin-4-yl)-4,5′-bipyrimidine-2,2′-diamine] — within 1.5-fold, 35 nM
- OCCNc1ncc(-c2ccnc(Nc3ccncc3)n2)c(CC2CC2)n1 [Example 10m, 2-(4′-(cyclopropylmethyl)-2-(pyridin-4-ylamino)-4,5′-bipyrimidin-2′-ylamino)ethanol] — 2.5-fold lower, 11.5 nM
- COCCNc1ncc(-c2ccnc(Nc3ccncc3)n2)c(CC2CC2)n1 [Example 10n, 4′-(cyclopropylmethyl)-N^2′-(2-methoxyethyl)-N^2-(pyridin-4-yl)-4,5′-bipyrimidine-2,2′-diamine] — within 1.5-fold, 31 nM
- CC(CO)Nc1ncc(-c2ccnc(Nc3ccncc3)n2)c(CC2CC2)n1 (stereo not shown) [Example 10o, 2-(4′-(cyclopropylmethyl)-2-(pyridin-4-ylamino)-4,5′-bipyrimidin-2′-ylamino)propan-1-ol] — within 1.5-fold, 31.5 nM
- C[C@H](CO)Nc1ncc(-c2ccnc(Nc3ccncc3)n2)c(CC2CC2)n1 [Example 10p, (R)-2-(4′-(cyclopropylmethyl)-2-(pyridin-4-ylamino)-4,5′-bipyrimidin-2′-ylamino)propan-1-ol] — 7.2-fold higher, 210 nM
- C[C@@H](CO)Nc1ncc(-c2ccnc(Nc3ccncc3)n2)c(CC2CC2)n1 [Example 10q, (S)-2-(4′-(cyclopropylmethyl)-2-(pyridin-4-ylamino)-4,5′-bipyrimidin-2′-ylamino)propan-1-ol] — 1.8-fold higher, 53 nM
- CC(C)(C)CNc1ncc(-c2ccnc(Nc3ccncc3)n2)c(CC2CC2)n1 [Example 10r, 4′-(cyclopropylmethyl)-N2′-neopentyl-N2-(pyridin-4-yl)-4,5′-bipyrimidine-2,2′-diamine] — 2.9-fold higher, 85 nM
- CCC(C)Nc1ncc(-c2ccnc(Nc3ccncc3)n2)c(CC2CC2)n1 (stereo not shown) [Example 10s, N^2′-sec-butyl-4′-(cyclopropylmethyl)-N^2-(pyridin-4-yl)-4,5′-bipyrimidine-2,2′-diamine] — 1.8-fold higher, 51.5 nM
- CC(C)(O)CNc1ncc(-c2ccnc(Nc3ccncc3)n2)c(CC2CC2)n1 [Example 10t, 1-(4′-(cyclopropylmethyl)-2-(pyridin-4-ylamino)-4,5′-bipyrimidin-2′-ylamino)-2-methylpropan-2-ol] — 1.9-fold lower, 15 nM
- COc1ncc(-c2ccnc(Nc3ccncc3)n2)c(CC2CC2)n1 [Example 10u, 4′-(cyclopropylmethyl)-2′-methoxy-N-(pyridin-4-yl)-4,5′-bipyrimidin-2-amine] — 3.1-fold higher, 90.5 nM
- c1cc(Nc2nccc(-c3cncnc3CC3CC3)n2)ccn1 [Example 10v, 4′-(cyclopropylmethyl)-N-(pyridin-4-yl)-4,5′-bipyrimidin-2-amine] — 7.4-fold higher, 214 nM
- CSc1ncc(-c2ccnc(Nc3ccncc3)n2)c(CC2CC2)n1 [Example 11, 4′-(Cyclopropylmethyl)-2′-(methylsulfanyl)-N-pyridin-4-yl-4,5′-bipyrimidin-2-amine] — 3.7-fold higher, 106 nM
- CC(C)Nc1ncc(-c2ccnc(Nc3ccncc3)n2)c(CC2CC2)n1 [Example 12a, 4′-Cyclopropylmethyl-N^2′-isopropyl-N^2-pyridin-4-yl-[4,5′]bipyrimidinyl-2,2′-diamine] — within 1.5-fold, 34.5 nM
- c1cc(Nc2nccc(-c3cnc(NC4CCCCC4)nc3CC3CC3)n2)ccn1 [Example 12b, N^2′-cyclohexyl-4′-(cyclopropylmethyl)-N^2-(pyridin-4-yl)-4,5′-bipyrimidine-2,2′-diamine] — 20-fold higher, 570 nM
- c1cc(Nc2nccc(-c3cnc(NC4CC4)nc3CC3CC3)n2)ccn1 [Example 12c, N^2′-cyclopropyl-4′-(cyclopropylmethyl)-N^2-(pyridin-4-yl)-4,5′-bipyrimidine-2,2′-diamine] — 1.6-fold higher, 45.5 nM
- Nc1ncc(-c2ccnc(Nc3ccncc3)n2)c(COCc2ccccc2)n1 [Example 13, 4′-Benzyloxymethyl-N^2-pyridin-4-yl-[4,5′]bipyrimidinyl-2,2′-diamine] — 4.1-fold lower, 7 nM
- CNc1ncc(-c2ccnc(Nc3ccc(OC)nc3)n2)c(CC2CC2)n1 [Example 14a, 4′-Cyclopropylmethyl-N^2-(6-methoxy-pyridin-3-yl)-N^2′-methyl-[4,5′]bipyrimidinyl-2,2′-diamine] — 4-fold higher, 115 nM
- CNc1ncc(-c2ccnc(Nc3ccccc3)n2)c(CC2CC2)n1 [Example 14b, 4′-(cyclopropylmethyl)-N^2′-methyl-N^2-phenyl-4,5′-bipyrimidine-2,2′-diamine] — 9.9-fold higher, 286 nM
- CNc1ncc(-c2ccnc(Nc3ccncc3)n2)c(CC2CC2)n1 [Example 14c, 4′-(cyclopropylmethyl)-N^2′-methyl-N^2-(pyridin-4-yl)-4,5′-bipyrimidine-2,2′-diamine] — within 1.5-fold, 37 nM
- CNc1ncc(-c2ccnc(Nc3cnc4ccccc4c3)n2)c(CC2CC2)n1 [Example 14d, 4′-(cyclopropylmethyl)-N^2′-methyl-N^2-(quinolin-3-yl)-4,5′-bipyrimidine-2,2′-diamine] — 4.6-fold higher, 133 nM
- CNc1ncc(-c2ccnc(NC3CCCCC3)n2)c(CC2CC2)n1 [Example 14e, N^2-Cyclohexyl-4′-cyclopropylmethyl-N^2′-methyl-[4,5′]bipyrimidinyl-2,2′-diamine] — 38-fold higher, 1100 nM
- CNc1ncc(-c2ccnc(NC3CCC3)n2)c(CC2CC2)n1 [Example 14f, N^2-cyclobutyl-4′-(cyclopropylmethyl)-N^2′-methyl-4,5′-bipyrimidine-2,2′-diamine] — 25-fold higher, 722 nM
- CNc1ncc(-c2ccnc(NC3CCOCC3)n2)c(CC2CC2)n1 [Example 14g, 4′-(cyclopropylmethyl)-N^2′-methyl-N^2-(tetrahydro-2H-pyran-4-yl)-4,5′-bipyrimidine-2,2′-diamine] — 14-fold higher, 398 nM
- CNc1ncc(-c2ccnc(NC3CCCC3)n2)c(CC2CC2)n1 [Example 14h, N^2-cyclopentyl-4′-(cyclopropylmethyl)-N^2′-methyl-4,5′-bipyrimidine-2,2′-diamine] — 47-fold higher, 1360 nM
- CNc1ncc(-c2ccnc(N[C@H]3CC[C@H](NC(=O)OC(C)(C)C)CC3)n2)c(CC2CC2)n1 [Example 14i, tert-butyl (1r,4r)-4-(4′-(cyclopropylmethyl)-2′-(methylamino)-4,5′-bipyrimidin-2-ylamino)cyclohexylcarbamate] — 12-fold higher, 348 nM
- CNc1ncc(-c2ccnc(NC3CCC(N)CC3)n2)c(CC2CC2)n1 (stereo not shown) [Example 14j, N^2-(4-aminocyclohexyl)-4′-(cyclopropylmethyl)-N^2′-methyl-4,5′-bipyrimidine-2,2′-diamine] — 14-fold higher, 411 nM
